Literature values, collected in patent US8846730B2, “Compounds as cannabinoid receptor ligands” (priority 2008, dated 2014).

Tests used:
atherosclerotic lesions = conditions: low doses, apolipoprotein E knockout mice; cited from earlier work
[1] = tested on: ovariectomy-induced bone loss; conditions: mice, model for post-menopausal osteoporosis; cited from earlier work

(−)-Δ^9-Tetrahydrocannabinol [THC]
effect on progression of atherosclerotic lesions (atherosclerotic lesions): slowed the progression of atherosclerotic lesions

SR144528
effect on osteoclast activity and bone loss [1]: inhibit osteoclast activity and reverse ovariectomy-induced bone loss
